SMILES strings stand for the structures. pIC50: −log10 of the molar value.

In assay [1] the test system is Human LDL. Description: Antioxidant effect: inhibition of copper-induced oxidation of human LDL (fluorescence). It is filed as biochemical. Conditions: human LDL 120 μg/ml + CuCl2, 37° C., fluorescence difference between 2 h and 24 h readings; from three concentrations. As for the experimental part: Human LDLs placed in aqueous solution in the presence of cupric ions, become spontaneously oxidized on their protein component, apolipoprotein-B. This oxidation makes the particle fluorescent, which is exploited to measure a pharmacological effect.
The reactions and measurements are performed in black 96-well plates. 10 μl of a solution of the test product dissolved in dimethyl sulfoxide are first mixed with 170 μl of a solution of human LDL at a concentration of 120 μg/ml and 20 μl of 100 μM CuCl2. After stirring, the mixture is incubated for 2 hours at 37° C., and a first fluorescence reading is taken (excitation at 360 nm, reading at 460 nm). The mixture is then incubated for a further 22 hours, to take a second reading under the same conditions. The difference is proportionately smaller the greater the anti-oxidant power of the test product. Probucol is used as reference product at a concentration of 10 μM.
The concentrations that inhibit 50% (IC50) of the oxidation are prepared from three concentrations of the test product. They are given in Table I below for some of the compounds given as examples below.

Assay [2] relates to fatty Zucker rats. Briefly: Hypotriglyceridaemiant activity in fatty Zucker rats. Format: in vivo, rat. As to conditions: 9-week-old male Zucker rats, 300 mg/kg/day p.o. for eight days, plasma after fasting four hours. As for the experimental part:
The compound of Example 2 was tested on fatty Zucker rats (Zucker L. M. et al., 1961, Fatty a new mutation in the rat, J. Hered., 52: 275278). This animal is hyperphagic, obese and hyperinsulinaemic. It develops resistance to insulin, it is hyperlipidaemic, and has a large hypertriglyceridaemia. 9-week-old male Zucker rats were treated for eight days with this compound at a dose of 300 mg/kg/day p.o. After fasting for four hours, a blood sample is taken to recover the plasma. Under these conditions, the compound of Example 2 induces a large reduction in triglycerides, of 55% (p<0.01), and the insulinaemia is down by 59% (p<0.05).

For the compound `COc1ccc(Nc2ccc(C(=O)O)cc2)cc1` [Example 2, 4-[(4-Methoxyphenyl)amino]benzoic acid], the pIC50 in assay [1] is 4.97. Also, in assay [2] (p<0.01), the reduction in triglycerides is listed as 55%. For the same compound, in assay [2] (p<0.05), the “insulinaemia down by” value is reported as 59%. Regarding `COc1ccc(Nc2ccc(CC(=O)O)cc2)cc1` [Example 17], the pIC50 in assay [1] is 4.95. Take `COc1ccc(Nc2ccc(C(N)=O)cc2)cc1` [Example 42]: the pIC50 in assay [1] was 4.73. In the case of `COc1ccc(Nc2ccc(C#N)cc2)cc1` [Example 6, 4-[(4-Methoxyphenyl)amino]benzonitrile], in assay [1], the pIC50 was 5.07. For `COc1ccc(Nc2ccc(CO)cc2)cc1` [Example 8, {4-[(4-Methoxyphenyl)amino]phenyl}methanol], the pIC50 in assay [1] was 5.24.

In the case of `O=C(O)c1ccc(Nc2ccc([N+](=O)[O-])cc2)cc1` [Example 13], in assay [1], the pIC50 is 5.01.

A word on the pIC50: it is the IC50 on a negative log10 scale, so that one unit is a factor of ten.

The values are drawn from US20070129433A1, “Diphenylamine derivatives” (priority 2003, published 2007).
